The values that follow come from patent US10770169B2, “Method of providing a treatment to a subject based on a dynamic pathway map” (THE REGENTS OF THE UNIVERSITY OF CALIFORNIA, priority 2010, dated 2020).

The assay relates to panel of 55 breast cancer cell lines. As to the kind of experiment: Cell growth inhibition assay (Cell Titer Glo, 72 h, 9 doses; GI50, TGI, LC50). Type of assay: cell-based, human. To be noted: for GI50: value is the negative log10 of mol/L. A general note: ATP-based viability assays read luminescence as a measure of living cells.

For the compound `COc1cc2c(Nc3ccc(NC(=O)c4ccccc4)cc3)ncnc2cc1OCCCN1CCOCC1` [ZM447439], the GI50 by setting is: (cell line AU565, censored GI50 values) 5.82; (cell line BT20, censored GI50 values) 5.29; (cell line BT474, censored GI50 values) 4.20; (cell line BT483, censored GI50 values) 4.57; (cell line CAMA1, censored GI50 values) 5.40; (cell line HCC38, censored GI50 values) 6.24. The GI50 was found to be 6.01 (cell line HCC70, censored GI50 values); 4.98 (cell line HCC1143, censored GI50 values); 6.19 (cell line HCC1187, censored GI50 values); 5.32 (cell line HCC1419, censored GI50 values); 5.13 (cell line HCC1428, censored GI50 values); 5.28 (cell line HCC1500, censored GI50 values). Also, the GI50 runs as follows: (cell line HCC1937, censored GI50 values) 5.23; (cell line HCC2185, censored GI50 values) 5.92; (cell line MDAMB134VI, censored GI50 values) 4.66; (cell line MDAMB175VII, censored GI50 values) 4.28; (cell line MDAMB361, censored GI50 values) 5.53; (cell line MDAMB436, censored GI50 values) 5.33. The GI50 runs as follows: (cell line MDAMB468, censored GI50 values) 6.18; (cell line SKBR3, censored GI50 values) 4.77; (cell line SUM52PE, censored GI50 values) 5.40; (cell line SUM185PE, censored GI50 values) 4.50; (cell line T47D, censored GI50 values) 4.94; (cell line UACC812, censored GI50 values) 4.88. Besides, the GI50 by setting is: (cell line ZR75B, censored GI50 values) 5.00; (cell line ZR751, censored GI50 values) 5.46.

In the case of `COc1cc2c(Nc3ccc(NC(=O)c4ccccc4)cc3)ncnc2cc1OCCCN1CCOCC1` [ZM 447439], the GI50 reads like this: (cell line AU565) 5.82; (cell line BT20) 5.29; (cell line BT474) 4.20; (cell line BT483) 4.57; (cell line CAMA1) 5.40; (cell line HCC38) 6.24. Moreover, the GI50 is 6.01 (cell line HCC70); 4.98 (cell line HCC1143); 6.19 (cell line HCC1187); 5.32 (cell line HCC1419); 5.13 (cell line HCC1428); 5.28 (cell line HCC1500). Besides, the GI50 was 5.23 (cell line HCC1937); 4.48 (cell line HCC1954); 5.92 (cell line HCC2185); 4.48 (cell line HCC3153); 4.66 (cell line MDAMB134V); 4.28 (cell line MDAMB175V). The GI50 turned out to be 5.53 (cell line MDAMB361); 4.48 (cell line MDAMB415); 5.33 (cell line MDAMB436); 4.45 (cell line MDAMB453); 6.18 (cell line MDAMB468); 4.77 (cell line SKBR3). Moreover, the GI50 runs as follows: (cell line SUM52PE) 5.40; (cell line SUM149PT) 4.18; (cell line SUM185PE) 4.50; (cell line SUM1315MO) 4.48; (cell line T47D) 4.94; (cell line UACC812) 4.88. The GI50 by setting is: (cell line ZR75B) 5.00; (cell line ZR751) 5.46.

As to `O=c1cc(-c2ccccc2)oc2cc(O)c(O)c(O)c12` [baicalein], the “variability in cell line response” value (across the cell line panel) is listed as “variability in cell line response was minimal”.

With ICRF-193, the GI50 stood at 6.14 (AU565 cell line, censored GI50 values); 6.54 (HCC38 cell line, censored GI50 values); 6.05 (HCC1187 cell line, censored GI50 values); 4.66 (HCC1500 cell line, censored GI50 values); 4.82 (HCC1954 cell line, censored GI50 values); 5.69 (HCC2185 cell line, censored GI50 values). In addition, the GI50 is, setting by setting: (SKBR3 cell line, censored GI50 values) 5.22; (SUM149PT cell line, censored GI50 values) 4.75; (SUM159PT cell line, censored GI50 values) 6.38; (SUM1315MO2 cell line, censored GI50 values) 6.21; (UACC812 cell line, censored GI50 values) 4.66; (ZR75B cell line, censored GI50 values) 6.60. Besides, the GI50 reads like this: (ZR751 cell line, censored GI50 values) 6.07; (cell line AU565) 6.14; (cell line BT20) 4.38; (cell line BT474) 4.30; (cell line CAMA1) 4.30; (cell line HCC38) 6.54. In addition, the GI50 (cell line HCC1143) is 4.30; the GI50 (cell line HCC1187) came out at 6.05; the GI50 (cell line HCC1428) is given as 4.38; the GI50 (cell line HCC1500) was 4.66; the GI50 (cell line HCC1806) is given as 4.30; the GI50 (cell line HCC1937) is on record as 4.30. For the same compound, the GI50 is, setting by setting: (cell line HCC1954) 4.82; (cell line HCC2185) 5.69; (cell line MDAMB436) 4.30; (cell line MDAMB453) 4.45; (cell line SKBR3) 5.22; (cell line SUM149PT) 4.75. Besides, the GI50 is 6.38 (cell line SUM159PT); 6.21 (cell line SUM1315MO); 4.66 (cell line UACC812); 6.60 (cell line ZR75B); 6.07 (cell line ZR751).
